# In patent US20260159536A1, “AKR1C3-ACTIVATED DNA ALKYLATING AGENT, AND MEDICAL APPLICATION THEREOF” (ASCENTAWITS PHARMACEUTICALS, LTD., priority 2021, published 2026):
# How the values were obtained:
# [1] = test system: human liver cancer HepG2 cells; assay: In vivo pharmacodynamics, liver cancer HepG2 CDX model; parameters: species or system BALB/c nude mice; settings: for Tumor volume (x ± S): in mm³ (unit assumed)
# Procedure: Experiment Instruction: BALB/c nude mice were subcutaneously inoculated with human liver cancer HepG2 cells to establish a subcutaneous transplantation tumor model of human liver cancer. […] The efficacy was evaluated according to the relative tumor inhibition rate TGI (%), and the safety was evaluated according to the change in body weight and the death of the animals.
# [2] = test system: HuPrime model LU0884 human lung cancer; assay: In vivo pharmacodynamics, lung cancer LU0884 PDX model; parameters: species or system BALB/c nude mice; settings: for T/C (%) / TGI (%) / Relative tumor volume (x ± S) / Tumor volume (x ± S): QWx3, i.v.; for Relative tumor volume (x ± S) / Tumor volume (x ± S): mean ± standard error; for Tumor volume (x ± S): in mm³ (unit assumed)
# [3] = 1.25 mg/kg, QDx5, 2 days off, 2 weeks off, QDx5, i.p., Day 53
# [4] = 2.5 mg/kg, QDx5, 2 days off, 2 weeks off, QDx5, i.p., Day 53
# [5] = 5 mg/kg, QDx5, 2 days off, 2 weeks off, QDx5, i.p., Day 53
# [6] = 5 mg/kg, QWx2, 1 week off, QWx2, i.v., Day 53
# [7] = 10 mg/kg, QWx2, 1 week off, QWx2, i.v., Day 53
# [8] = Paclitaxel 20 mg/kg, Compound A 2.5, 5, 10 mg/kg
compound,measurement,setting,value
O=[N+]([O-])c1ccc(C(OP(=O)(N2CC2)N2CC2)C(F)(F)F)cc1Oc1ccc(-c2ccc(F)cc2)c(F)c1 (racemic) [Compound A],Tumor volume,"[1]; 1.25 mg/kg i.p., Day 19",189.54 mm^3
same,Tumor volume,"[1]; 1.25 mg/kg i.p., Day 22",315.41 mm^3
same,Tumor volume,"[1]; 1.25 mg/kg i.p., Day 24",351.74 mm^3
same,Tumor volume,"[1]; 1.25 mg/kg i.p., Day 27",383.10 mm^3
same,Tumor volume,"[1]; 1.25 mg/kg i.p., Day 31",366.64 mm^3
same,Tumor volume,"[1]; 1.25 mg/kg i.p., Day 36",416.27 mm^3
same,Tumor volume,"[1]; 1.25 mg/kg i.p., Day 39",586.80 mm^3
same,Tumor volume,"[1]; 1.25 mg/kg i.p., Day 42",782.39 mm^3
same,Tumor volume,"[1]; 1.25 mg/kg i.p., Day 46",886.97 mm^3
same,Tumor volume,"[1]; 1.25 mg/kg i.p., Day 49",975.41 mm^3
same,Tumor volume,"[1]; 1.25 mg/kg i.p., Day 53",1066.23 mm^3
same,Relative tumor volume (x ± S),[1]; [3],5.57 ± 1.26
same,T/C (%),[1]; [3],47.03%
same,TGI (%),[1]; [3],52.97%
same,Tumor volume (x ± S),[1]; [3],1066.23 ± 252.18
same,Tumor volume,"[1]; 2.5 mg/kg i.p., Day 19",189.31 mm^3
same,Tumor volume,"[1]; 2.5 mg/kg i.p., Day 22",292.03 mm^3
same,Tumor volume,"[1]; 2.5 mg/kg i.p., Day 24",360.14 mm^3
same,Tumor volume,"[1]; 2.5 mg/kg i.p., Day 27",373.23 mm^3
same,Tumor volume,"[1]; 2.5 mg/kg i.p., Day 31",405.67 mm^3
same,Tumor volume,"[1]; 2.5 mg/kg i.p., Day 36",392.90 mm^3
same,Tumor volume,"[1]; 2.5 mg/kg i.p., Day 39",342.04 mm^3
same,Tumor volume,"[1]; 2.5 mg/kg i.p., Day 42",399.84 mm^3
same,Tumor volume,"[1]; 2.5 mg/kg i.p., Day 46",417.54 mm^3
same,Tumor volume,"[1]; 2.5 mg/kg i.p., Day 49",456.60 mm^3
same,Tumor volume,"[1]; 2.5 mg/kg i.p., Day 53",417.76 mm^3
same,Relative tumor volume (x ± S),[1]; [4],2.19 ± 0.52
same,T/C (%),[1]; [4],18.46%
same,TGI (%),[1]; [4],81.54%
same,Tumor volume (x ± S),[1]; [4],417.76 ± 105.16
same,euthanasia owing to BWL>20%,"[1]; 5 mg/kg QDx5, 2 days off, 2 weeks off, QDx5, i.p. (Group 7)",one mouse was euthanized
same,death,"[1]; 5 mg/kg QWx2, 1 week off, QWx2, i.v. (Group 3)",one mouse in this group suffered death
same,Tumor volume,"[1]; 5 mg/kg i.p., Day 19",189.64 mm^3
same,Tumor volume,"[1]; 5 mg/kg i.p., Day 22",259.29 mm^3
same,Tumor volume,"[1]; 5 mg/kg i.p., Day 24",280.24 mm^3
same,Tumor volume,"[1]; 5 mg/kg i.p., Day 27",286.22 mm^3
same,Tumor volume,"[1]; 5 mg/kg i.p., Day 31",290.75 mm^3
same,Tumor volume,"[1]; 5 mg/kg i.p., Day 36",293.88 mm^3
same,Tumor volume,"[1]; 5 mg/kg i.p., Day 39",247.49 mm^3
same,Tumor volume,"[1]; 5 mg/kg i.p., Day 42",224.58 mm^3
same,Tumor volume,"[1]; 5 mg/kg i.p., Day 46",215.32 mm^3
same,Tumor volume,"[1]; 5 mg/kg i.p., Day 49",234.89 mm^3
same,Tumor volume,"[1]; 5 mg/kg i.p., Day 53",189.84 mm^3
same,Tumor volume,"[1]; 5 mg/kg i.v., Day 19",191.48 mm^3
same,Tumor volume,"[1]; 5 mg/kg i.v., Day 22",315.19 mm^3
same,Tumor volume,"[1]; 5 mg/kg i.v., Day 24",360.12 mm^3
same,Tumor volume,"[1]; 5 mg/kg i.v., Day 27",390.21 mm^3
same,Tumor volume,"[1]; 5 mg/kg i.v., Day 31",373.82 mm^3
same,Tumor volume,"[1]; 5 mg/kg i.v., Day 36",314.44 mm^3
same,Tumor volume,"[1]; 5 mg/kg i.v., Day 39",283.08 mm^3
same,Tumor volume,"[1]; 5 mg/kg i.v., Day 42",276.88 mm^3
same,Tumor volume,"[1]; 5 mg/kg i.v., Day 46",233.11 mm^3
same,Tumor volume,"[1]; 5 mg/kg i.v., Day 49",145.58 mm^3
same,Tumor volume,"[1]; 5 mg/kg i.v., Day 53",136.44 mm^3
same,Relative tumor volume (x ± S),[1]; [5],0.99 ± 0.38
same,T/C (%),[1]; [5],8.33%
same,TGI (%),[1]; [5],91.67%
same,Tumor volume (x ± S),[1]; [5],189.84 ± 72.81
same,Relative tumor volume (x ± S),[1]; [6],0.70 ± 0.34
same,T/C (%),[1]; [6],5.92%
same,TGI (%),[1]; [6],94.08%
same,Tumor volume (x ± S),[1]; [6],136.44 ± 66.47
same,weight loss or death,[1]; 10 mg/kg i.v. (Group 4) and 2.5 mg/kg i.p. (Group 6),did not cause severe weight loss or death
same,Tumor volume,"[1]; 10 mg/kg i.v., Day 19",191.97 mm^3
same,Tumor volume,"[1]; 10 mg/kg i.v., Day 22",314.32 mm^3
same,Tumor volume,"[1]; 10 mg/kg i.v., Day 24",375.81 mm^3
same,Tumor volume,"[1]; 10 mg/kg i.v., Day 27",427.75 mm^3
same,Tumor volume,"[1]; 10 mg/kg i.v., Day 31",386.68 mm^3
same,Tumor volume,"[1]; 10 mg/kg i.v., Day 36",347.85 mm^3
same,Tumor volume,"[1]; 10 mg/kg i.v., Day 39",312.31 mm^3
same,Tumor volume,"[1]; 10 mg/kg i.v., Day 42",252.78 mm^3
same,Tumor volume,"[1]; 10 mg/kg i.v., Day 46",197.45 mm^3
same,Tumor volume,"[1]; 10 mg/kg i.v., Day 49",142.21 mm^3
same,Tumor volume,"[1]; 10 mg/kg i.v., Day 53",88.20 mm^3
same,Relative tumor volume (x ± S),[1]; [7],0.45 ± 0.15
same,T/C (%),[1]; [7],3.83%
same,TGI (%),[1]; [7],96.17%
same,Tumor volume (x ± S),[1]; [7],88.20 ± 29.95
same,complete cure,"[1]; one mouse in each of Groups 3, 4, 7",completely cured
same,T/C (%),"[2]; Compound A 2.5 mg/kg, Day 28",57.85%
same,TGI (%),"[2]; Compound A 2.5 mg/kg, Day 28",42.15%
same,Relative tumor volume (x ± S),"[2]; Compound A 2.5 mg/kg, Day 28",3.47 ± 0.56
same,Tumor volume (x ± S),"[2]; Compound A 2.5 mg/kg, Day 28",360.43 ± 44.42
same,T/C (%),"[2]; Compound A 5 mg/kg, Day 28",43.62%
same,TGI (%),"[2]; Compound A 5 mg/kg, Day 28",56.38%
same,Relative tumor volume (x ± S),"[2]; Compound A 5 mg/kg, Day 28",2.61 ± 0.94
same,Tumor volume (x ± S),"[2]; Compound A 5 mg/kg, Day 28",291.60 ± 103.85
same,T/C (%),"[2]; Compound A 10 mg/kg, Day 28",63.02%
same,TGI (%),"[2]; Compound A 10 mg/kg, Day 28",36.98%
same,Relative tumor volume (x ± S),"[2]; Compound A 10 mg/kg, Day 28",3.78 ± 1.19
same,Tumor volume (x ± S),"[2]; Compound A 10 mg/kg, Day 28",434.80 ± 160.03
same,Size of tumor volume,"[2]; Group 4, Compound A 2.5 mg/kg, Day 0",109.86 mm^3
same,Size of tumor volume,"[2]; Group 4, Compound A 2.5 mg/kg, Day 4",138.21 mm^3
same,Size of tumor volume,"[2]; Group 4, Compound A 2.5 mg/kg, Day 7",177.96 mm^3
same,Size of tumor volume,"[2]; Group 4, Compound A 2.5 mg/kg, Day 11",194.38 mm^3
same,Size of tumor volume,"[2]; Group 4, Compound A 2.5 mg/kg, Day 14",216.81 mm^3
same,Size of tumor volume,"[2]; Group 4, Compound A 2.5 mg/kg, Day 18",261.94 mm^3
same,Size of tumor volume,"[2]; Group 4, Compound A 2.5 mg/kg, Day 21",287.79 mm^3
same,Size of tumor volume,"[2]; Group 4, Compound A 2.5 mg/kg, Day 25",328.61 mm^3
same,Size of tumor volume,"[2]; Group 4, Compound A 2.5 mg/kg, Day 28",360.43 mm^3
same,Size of tumor volume,"[2]; Group 5, Compound A 5 mg/kg, Day 0",110.67 mm^3
same,Size of tumor volume,"[2]; Group 5, Compound A 5 mg/kg, Day 4",173.28 mm^3
same,Size of tumor volume,"[2]; Group 5, Compound A 5 mg/kg, Day 7",221.81 mm^3
same,Size of tumor volume,"[2]; Group 5, Compound A 5 mg/kg, Day 11",229.45 mm^3
same,Size of tumor volume,"[2]; Group 5, Compound A 5 mg/kg, Day 14",236.47 mm^3
same,Size of tumor volume,"[2]; Group 5, Compound A 5 mg/kg, Day 18",260.75 mm^3
same,Size of tumor volume,"[2]; Group 5, Compound A 5 mg/kg, Day 21",271.59 mm^3
same,Size of tumor volume,"[2]; Group 5, Compound A 5 mg/kg, Day 25",289.40 mm^3
same,Size of tumor volume,"[2]; Group 5, Compound A 5 mg/kg, Day 28",291.60 mm^3
same,Size of tumor volume,"[2]; Group 6, Compound A 10 mg/kg, Day 0",109.04 mm^3
same,Size of tumor volume,"[2]; Group 6, Compound A 10 mg/kg, Day 4",202.09 mm^3
same,Size of tumor volume,"[2]; Group 6, Compound A 10 mg/kg, Day 7",257.40 mm^3
same,Size of tumor volume,"[2]; Group 6, Compound A 10 mg/kg, Day 11",283.55 mm^3
same,Size of tumor volume,"[2]; Group 6, Compound A 10 mg/kg, Day 14",293.14 mm^3
same,Size of tumor volume,"[2]; Group 6, Compound A 10 mg/kg, Day 18",343.92 mm^3
same,Size of tumor volume,"[2]; Group 6, Compound A 10 mg/kg, Day 21",359.85 mm^3
same,Size of tumor volume,"[2]; Group 6, Compound A 10 mg/kg, Day 25",411.01 mm^3
same,Size of tumor volume,"[2]; Group 6, Compound A 10 mg/kg, Day 28",434.80 mm^3
same,tolerability,[2]; [8],well tolerated
same,tumor inhibitory effect,[2]; [8],certain tumor inhibitory effects
